Assay [1] concerns BCL2 (DNA, G4) GGGCGCGGGAGGAATTGGGCGGG
Nature of the assay: fluorescence titration of ligand, Hill fit. To be noted: K+; 100 mM Tris-KCl, pH 7.4, 25 °C; excitation 300 nm.

Assay [2] concerns dsDNA (dual-labeled) (DNA, duplex) CAATCGGATCGAATTCGATCCGATTG
Description: FRET melting. The settings on record: K+ 60 mM; 60 mM K-cacodylate (table note: Tris-HCl/KCl), pH 7.4; 1 µM compound.

Assay [3] has as its system KRAS (DNA, G4) AGGGCGGTGTGGGAAGAGGGAAGAGGGGGAGG
Description: ITC. The settings on record: K+ 100 mM; 100 mM Tris, 100 mM KCl, pH 7.4; 5 µM DNA, 50 µM ligand.

Assay [4] deals with VEGF (DNA, G4) CGGGGCGGGCCGGGGGCGGGGT
Nature of the assay: ITC. To be noted: K+ 100 mM; 100 mM Tris, 100 mM KCl, pH 7.4; 5 µM DNA, 50 µM ligand.

The subject of assay [5] is BCL2 (DNA, G4) GGGCGCGGGAGGAATTGGGCGGG
Description: ITC. The settings on record: K+ 100 mM; 100 mM Tris, 100 mM KCl, pH 7.4; 5 µM DNA, 50 µM ligand.

The subject of assay [6] is c-KIT1 (DNA, G4) GGGAGGGCGCTGGGAGGGAGGG
Description: ITC. To be noted: K+ 100 mM; 100 mM Tris, 100 mM KCl, pH 7.4; main text prints ~3.3 µM.

Assay [7] deals with c-KIT2 (DNA, G4) GGGCGGGCGCGAGGGAGGGG
Description: ITC. To be noted: K+ 100 mM; 100 mM Tris, 100 mM KCl, pH 7.4; main text prints ~2.6 µM.

Assay [8] concerns c-MYC27 (DNA, G4) TGAGGGTGGGTAGGGTGGGTAA
Description: ITC. The settings on record: K+ 100 mM; 100 mM Tris, 100 mM KCl, pH 7.4; 5 µM DNA, 50 µM ligand.

Assay [9] concerns KRAS (DNA, G4) AGGGCGGTGTGGGAAGAGGGAAGAGGGGGAGG
Nature of the assay: fluorescence titration of ligand, Hill fit. The settings on record: K+; 100 mM Tris-KCl, pH 7.4, 25 °C; excitation 300 nm.

The test system of assay [10] is c-KIT1 (DNA, G4) GGGAGGGCGCTGGGAGGGAGGG
Description: fluorescence titration of ligand, Hill fit. To be noted: K+; 100 mM Tris-KCl, pH 7.4, 25 °C; excitation 300 nm.

Assay [11] concerns c-KIT2 (DNA, G4) GGGCGGGCGCGAGGGAGGGG
Description: fluorescence titration of ligand, Hill fit. The settings on record: K+; 100 mM Tris-KCl, pH 7.4, 25 °C; excitation 300 nm.

Assay [12] relates to c-MYC27 (DNA, G4) TGAGGGTGGGTAGGGTGGGTAA
Nature of the assay: fluorescence titration of ligand, Hill fit. The settings on record: K+; 100 mM Tris-KCl, pH 7.4, 25 °C; excitation 300 nm.

Assay [13] concerns dsDNA (DNA, duplex) CAATCGGATCGAATTCGATCCGATTG
Description: fluorescence titration of ligand, Hill fit. The settings on record: K+; 100 mM Tris-KCl, pH 7.4, 25 °C; main text: no substantial spectral change with dsDNA, ITC negligible.

As a reminder, the Kd is the concentration at which binding is half-saturated. A high value points to a looser complex. `Nc1nc(C(=O)Nc2ccc(-n3cc(CNC(=O)c4csc(NC(=O)c5csc(N)n5)n4)nn3)cc2)cs1` yielded an equilibrium dissociation constant (Kd) in assay [1] of 1.8 µM.
The ΔTm is the change in melting temperature against a reference sample. In the case of `C[n+]1cc(NC(=O)c2ccc3ccc4ccc(C(=O)Nc5cc6ccccc6[n+](C)c5)nc4c3n2)cc2ccccc21`, the ΔTm in assay [2] was found to be 0.01 °C.
What is called KD is the constant that tells how readily two partners part at equilibrium. High values mean a looser complex, low ones a tighter complex. For the compound `Nc1nc(C(=O)Nc2nc(C(=O)NCc3cn(-c4ccc(NC(=O)[C@@H]5CCCN5)cc4)nn3)cs2)cs1`, the KD came out at 0.53 ± 0.25 µM in assay [3]; 17.7 ± 4 µM in assay [4]; 3 ± 0.1 µM in assay [5]; 2.2 ± 1 µM in assay [6]; 3.7 ± 0.3 µM in assay [7]; 2.28 ± 0.74 µM in assay [8]. Moreover, the KD was determined as 1.5 µM in assay [1]; 2 µM in assay [10]; 1.5 µM in assay [11]; 2.5 µM in assay [12]; 2.2 µM in assay [13]. The thermal shift (ΔTm) in [2] was 0.07 °C. Besides, the dissociation constant Kd in assay [9] was 0.8 µM.

The values above are taken from PMC12519992 (2025).
